Assay results reported in ChEMBL document CHEMBL1201862, “PubChem BioAssay data set” (2004).
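Test compounds were applied to cells in 96-well plates for 48 hours at 5 doses. At the GI50, growth is halved.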 Calls of active or inactive are those of the source. Rule as the data show it: active = GI50 up to about 1.1 µM and inactive = higher.

How the values were obtained:
Test in all cases: NCI-60 cell line screen, 48 h
HCC 2998 = tested on: HCC 2998
SK-MEL-2 = tested on: SK-MEL-2
MCF7 = tested on: MCF7
MDA-MB-435 = tested on: MDA-MB-435
PC-3 = tested on: PC-3
K562 = tested on: K562
MDA-MB-231 = tested on: MDA-MB-231
OVCAR-4 = tested on: OVCAR-4
CCRF-CEM = tested on: CCRF-CEM
MDA-N = tested on: MDA-N
A498 = tested on: A498
UACC-257 = tested on: UACC-257
UACC-62 = tested on: UACC-62
HL-60 = tested on: HL-60
EKVX = tested on: EKVX
SNB-75 = tested on: SNB-75
BT-549 = tested on: BT-549
NCI/ADR-RES = tested on: NCI/ADR-RES
NCI-H226 = tested on: NCI-H226
SF-268 = tested on: SF-268

| Compound | GI50 (HCC 2998) | GI50 (SK-MEL-2) | GI50 (MCF7) | GI50 (MDA-MB-435) | GI50 (PC-3) | GI50 (K562) | GI50 (MDA-MB-231) | GI50 (OVCAR-4) | GI50 (CCRF-CEM) | GI50 (MDA-N) | GI50 (A498) | GI50 (UACC-257) | GI50 (UACC-62) | GI50 (HL-60) | GI50 (EKVX) | GI50 (SNB-75) | GI50 (BT-549) | GI50 (NCI/ADR-RES) | GI50 (NCI-H226) | GI50 (SF-268) |
| --- | --- | --- | --- | --- | --- | --- | --- | --- | --- | --- | --- | --- | --- | --- | --- | --- | --- | --- | --- | --- |
| CCOC(=O)CCC(NC(=O)c1ccc(Nc2nc3ccccc3nc2-c2cccs2)cc1)C(=O)OCC (configuration not stated) | 33.9 µM (inactive) | 31.2 µM (inactive) | 26.9 µM (inactive) | 30.2 µM (inactive) | 38.5 µM (inactive) | 12.1 µM (inactive) | 27.3 µM (inactive) | 23.9 µM (inactive) | 11.4 µM (inactive) | 20.6 µM (inactive) | 21.7 µM (inactive) | 29.2 µM (inactive) | 23.7 µM (inactive) | 5.21 µM (inactive) | 31.6 µM (inactive) | 36.3 µM (inactive) | 23.6 µM (inactive) | 21.3 µM (inactive) | 26.6 µM (inactive) | 27.1 µM (inactive) |
| Cc1ccc(NC(=O)/C(=N/N(C)C)C(C2OC(=O)c3ccccc32)[N+](=O)[O-])cc1 (configuration not stated) | > 100 µM (inactive) | > 100 µM (inactive) | > 100 µM (inactive) | > 100 µM (inactive) | > 100 µM (inactive) | > 100 µM (inactive) | > 100 µM (inactive) | > 100 µM (inactive) | > 100 µM (inactive) | > 100 µM (inactive) | > 100 µM (inactive) | > 100 µM (inactive) | > 100 µM (inactive) | > 100 µM (inactive) | – | > 100 µM (inactive) | > 100 µM (inactive) | > 100 µM (inactive) | > 100 µM (inactive) | > 100 µM (inactive) |
| COc1c2c(c3c(c1OC)c(=O)c1ccccc1n3C)OCO2 | > 100 µM (inactive) | > 100 µM (inactive) | > 100 µM (inactive) | > 100 µM (inactive) | > 100 µM (inactive) | 81.5 µM (inactive) | > 100 µM (inactive) | 76.2 µM (inactive) | > 100 µM (inactive) | > 100 µM (inactive) | > 100 µM (inactive) | > 100 µM (inactive) | > 100 µM (inactive) | > 100 µM (inactive) | 45.2 µM (inactive) | > 100 µM (inactive) | > 100 µM (inactive) | > 100 µM (inactive) | > 100 µM (inactive) | > 100 µM (inactive) |
| C=C1C(=O)C([Si](C)(C)C)=C2C=C(C)C3(CC3)C12C (configuration not stated) | 38.9 µM (inactive) | 15.6 µM (inactive) | 18.6 µM (inactive) | 12.9 µM (inactive) | 3.36 µM (inactive) | 19.1 µM (inactive) | 23 µM (inactive) | 25.6 µM (inactive) | 1.19 µM (inactive) | 22.7 µM (inactive) | 31 µM (inactive) | 17.9 µM (inactive) | 14.7 µM (inactive) | 7.08 µM (inactive) | 4.69 µM (inactive) | – | 25.4 µM (inactive) | 13.7 µM (inactive) | 32 µM (inactive) | 53.2 µM (inactive) |
| N=c1oc2ccc(Cl)cc2cc1C(=O)NCc1ccccc1 | > 100 µM (inactive) | 51.1 µM (inactive) | > 100 µM (inactive) | 78.3 µM (inactive) | 98.9 µM (inactive) | > 42 µM (inactive) | > 100 µM (inactive) | > 100 µM (inactive) | 21.5 µM (inactive) | > 81.7 µM (inactive) | 63.5 µM (inactive) | > 100 µM (inactive) | 31.6 µM (inactive) | 11 µM (inactive) | > 100 µM (inactive) | 22.4 µM (inactive) | 23.7 µM (inactive) | 27.4 µM (inactive) | > 100 µM (inactive) | > 100 µM (inactive) |
| CCOCC(=O)N[C@H]1CCc2cc(OC)c(OC)c(OC)c2-c2ccc(SC)c(=O)cc21 | < 0.01 µM (active) | < 0.01 µM (active) | < 0.01 µM (active) | < 0.01 µM (active) | < 0.0327 µM (active) | 0.0146 µM (active) | < 0.01 µM (active) | 3.97 µM (inactive) | < 0.0182 µM (active) | < 0.01 µM (active) | < 0.01 µM (active) | < 0.0169 µM (active) | < 0.01 µM (active) | 0.0217 µM (active) | 7.94 µM (inactive) | 0.0102 µM (active) | < 0.01 µM (active) | 0.0159 µM (active) | 0.0465 µM (active) | < 0.01 µM (active) |
| O=c1c(Cc2ccc(Cl)cc2)nnc2sc(-c3ccc(-c4ccc(Cl)cc4Cl)o3)nn12 | 49.5 µM (inactive) | 36.7 µM (inactive) | 30.5 µM (inactive) | 71 µM (inactive) | 79.8 µM (inactive) | 89.9 µM (inactive) | 93.3 µM (inactive) | 42.9 µM (inactive) | 61.7 µM (inactive) | 48 µM (inactive) | 41.5 µM (inactive) | > 100 µM (inactive) | 63.1 µM (inactive) | 23.2 µM (inactive) | 29.4 µM (inactive) | – | > 100 µM (inactive) | 80.5 µM (inactive) | > 100 µM (inactive) | > 100 µM (inactive) |
| CCN(CC)C(=O)N[C@@H](Cc1ccccc1)C(=O)NC | > 100 µM (inactive) | > 100 µM (inactive) | > 100 µM (inactive) | > 100 µM (inactive) | > 100 µM (inactive) | > 100 µM (inactive) | > 100 µM (inactive) | > 100 µM (inactive) | > 100 µM (inactive) | > 100 µM (inactive) | > 100 µM (inactive) | – | > 100 µM (inactive) | > 100 µM (inactive) | > 100 µM (inactive) | > 100 µM (inactive) | > 100 µM (inactive) | > 100 µM (inactive) | > 100 µM (inactive) | > 100 µM (inactive) |
| CCC(=O)NC(NNS(=O)(=O)c1ccc(C)cc1)(C(F)(F)F)C(F)(F)F | > 10 µM (inactive) | > 100 µM (inactive) | 76 µM (inactive) | 18.7 µM (inactive) | 55.1 µM (inactive) | 30.6 µM (inactive) | 30.8 µM (inactive) | – | 63.1 µM (inactive) | 18.5 µM (inactive) | > 100 µM (inactive) | 52 µM (inactive) | 38.9 µM (inactive) | 46.6 µM (inactive) | > 100 µM (inactive) | 51.9 µM (inactive) | 29.7 µM (inactive) | 27.3 µM (inactive) | > 100 µM (inactive) | 55 µM (inactive) |
| O=C1CCCC[C@H]1C(O)CC1CC(=O)N(c2ccccc2)C(=O)C1 (some centres not stated) | > 100 µM (inactive) | – | > 100 µM (inactive) | > 100 µM (inactive) | > 100 µM (inactive) | > 100 µM (inactive) | > 100 µM (inactive) | > 100 µM (inactive) | > 100 µM (inactive) | > 100 µM (inactive) | > 100 µM (inactive) | > 100 µM (inactive) | > 100 µM (inactive) | > 100 µM (inactive) | – | > 100 µM (inactive) | > 100 µM (inactive) | > 100 µM (inactive) | > 100 µM (inactive) | > 100 µM (inactive) |
| COC(=O)C1=C(O)c2ccc(Cl)cc2S(=O)(=O)N1C | > 100 µM (inactive) | > 100 µM (inactive) | > 100 µM (inactive) | > 100 µM (inactive) | 83.4 µM (inactive) | 32.1 µM (inactive) | > 100 µM (inactive) | 45.1 µM (inactive) | 39.4 µM (inactive) | > 100 µM (inactive) | > 100 µM (inactive) | 93.3 µM (inactive) | > 100 µM (inactive) | 33.8 µM (inactive) | 42.2 µM (inactive) | – | > 100 µM (inactive) | 19.1 µM (inactive) | – | 64.7 µM (inactive) |
| CCOC(=O)c1cn(-c2ccccc2)c(=S)n2c1nc1ccccc12 | > 52.7 µM (inactive) | 32.9 µM (inactive) | 35.5 µM (inactive) | 32.5 µM (inactive) | 24.4 µM (inactive) | 18.3 µM (inactive) | > 63.7 µM (inactive) | 37.4 µM (inactive) | 5.53 µM (inactive) | 41.1 µM (inactive) | 23.9 µM (inactive) | 40 µM (inactive) | 53.8 µM (inactive) | – | 32.8 µM (inactive) | > 71.6 µM (inactive) | 41.8 µM (inactive) | 25.5 µM (inactive) | 27.3 µM (inactive) | 21.7 µM (inactive) |
| O=C1C(C(c2ccccc2)N2CCOCC2)=C(O)C(c2ccccc2)N1c1ccccc1 (configuration not stated) | > 10 µM (inactive) | > 10 µM (inactive) | > 10 µM (inactive) | > 10 µM (inactive) | > 10 µM (inactive) | > 10 µM (inactive) | > 10 µM (inactive) | – | > 10 µM (inactive) | > 10 µM (inactive) | > 10 µM (inactive) | > 10 µM (inactive) | > 10 µM (inactive) | > 10 µM (inactive) | > 10 µM (inactive) | 3.58 µM (inactive) | > 10 µM (inactive) | > 10 µM (inactive) | > 10 µM (inactive) | > 10 µM (inactive) |
| N#CCCCCC12C3C(=O)N(c4ccccc4)C(=O)C3ON1O[C@@H]1C(=O)N(c3ccccc3)C(=O)[C@@H]12 (some centres not stated) | > 100 µM (inactive) | – | > 100 µM (inactive) | > 100 µM (inactive) | > 100 µM (inactive) | > 100 µM (inactive) | > 100 µM (inactive) | > 100 µM (inactive) | > 100 µM (inactive) | > 100 µM (inactive) | > 100 µM (inactive) | > 100 µM (inactive) | > 100 µM (inactive) | > 100 µM (inactive) | > 100 µM (inactive) | – | > 100 µM (inactive) | > 100 µM (inactive) | > 100 µM (inactive) | > 100 µM (inactive) |
